The SangsterLogP compilation

experiment: method code SF, from Hansch, C. & Leo, A. (1987). Log P database [Dataset]. Pomona College Medicinal Chemistry Project.; details: not given

Compound	logP
O=[N+]([O-])c1cccc2ncccc12	1.86
COc1cc(C=NOC(=O)c2cc(OC)c(OC)c(OC)c2)ccc1OCCO	2.7
O=C1OC(Cc2ccccc2)c2ccccc21 (stereo not given)	3.12
ON=C(c1ccccc1)c1ccccc1	3.2
COC1C=COC2(C)Oc3c(C)c(O)c4c(O)c(c(/C=N\N5CCCCCCCCCC5)c(O)c4c3C2=O)NC(=O)/C(C)=C\C=C/C(C)C(O)C(C)C(O)C(C)C(OC(C)=O)C1C (stereo not given)	4.05
CO[C@H]1/C=C\O[C@@]2(C)Oc3c(C)c(O)c4c(O)c(c(/C=N/OCCCc5ccccc5)c(O)c4c3C2=O)NC(=O)/C(C)=C\C=C/[C@H](C)[C@H](O)[C@@H](C)[C@@H](O)[C@@H](C)[C@H](OC(C)=O)[C@@H]1C	4.83
CCNP(=O)(OC)Oc1cc(Cl)c(Cl)cc1Cl (stereo not given)	3.18
COc1ccccc1C(=O)N(C)C	0.71
CC(=O)Nc1ccc(CN(C)/N=N/c2ccc(C(=O)O)cc2)cc1	3.35
O=C(Nc1ccc(Cl)c(Cl)c1)C1CCCCC1	4.72
O=C1NC(c2cccc3ccccc23)Nc2ccccc21 (stereo not given)	2.96
Cn1c(=O)c(=O)n(C)c2ccccc21	0.08
CCOC(=O)C(=Cc1cccc([N+](=O)[O-])c1)C(=O)OCC	2.71
CNC(=O)COc1ccccc1	1.02
CN(C)C(=O)COc1ccccc1	0.78
CCOCCCl	0.98
OCc1cccs1	0.87
O=C1C=CCCC1	0.61
OC[C@@H]1C[C@H]1c1ccccc1	1.95
O=c1[nH]c(=O)n([C@H]2C[C@H](O)[C@@H](CO)O2)cc1F	-1.16
CN(C)CCC1CN(C)C(=S)c2cccnc2O1 (stereo not given)	1.08
N#Cc1c(N)sc2ccccc12	2.17
O=[N+]([O-])c1ccc(C=Cc2nccc(Cl)n2)o1	1.31

Compound	logP
CCOC(=O)C(=Cc1ccc(F)cc1)C(=O)OCC	3.1
O=C(Cc1ccccc1)Nc1ccc(Cl)c(Cl)c1	4.47
CS(=O)(=O)N(c1ccccc1)S(C)(=O)=O	0.62
CNc1ccccc1[N+](=O)[O-]	2.18
CCOC(=O)C(=Cc1cccc(OCC)c1)C(C)=O	2.71
CCC(C)NC(=O)C=C(Cl)c1ccc(Cl)cc1 (stereo not given)	3.61
COc1ccc2[nH]c(CCc3nc4cc(OC)ccc4[nH]3)nc2c1	1.14
ClC(Cl)(Cl)Sc1ccccc1	3.78
CNC(=O)NC	-0.96
O=C(Oc1ccccc1)Oc1ccccc1	3.28
CCS(=O)(=O)c1ccc(S(N)(=O)=O)c2ccccc12	1.24
CNC(=O)Oc1cc(C)c(C)cc1C	2.52
N#C/N=N/c1ccccc1	2.3
FC(F)F	0.64
O=c1[nH]c(=O)n([C@H]2C[C@H](O)[C@@H](CO)O2)cc1Br	-0.29
S=c1cccc[nH]1	-0.13
O=C1C=CC(=O)N1	-0.29
CCOC(=O)c1csc(C=Cc2ccc([N+](=O)[O-])o2)n1	1.3
CCOC(CCC#N)OCC	0.75
O=C1C(N2CCOCC2)=C(N2CC2)C(=O)C(N2CCOCC2)=C1N1CC1	0.52
C=C(CC(Cl)(Cl)Cl)c1ccccc1	4.56
COC[C@H]1O[C@@H](O)[C@H](NC(=O)N(CCCl)N=O)[C@@H](OC)[C@@H]1OC	0.8
CCSC(=Cc1ccccc1)C(=O)NC(C)CC (stereo not given)	3.4

Compound	logP
CC(C)(C)c1ccc(C(N)=O)cc1	2.51
COCC(=O)Nc1ccc(Cl)c(Cl)c1	2.77
Cc1nn(-c2ccccc2)c(C)c1N=O	2.28
NC(=O)c1cccs1	0.52
CON(C)C(=O)Nc1ccc2c(c1)Cc1ccccc1-2	3.67
CCC(C)NC(=O)/C(Cl)=C\c1ccccc1 (stereo not given)	3.52
CC1=Nc2cc(N)c(Cl)cc2S(=O)(=O)N1	0.63
CN(C)/N=N/c1cccc(C(F)(F)F)c1	3.78
CNC(=O)Oc1cc(C)c(Cl)cc1Cl	3
CC(=O)CF	-0.39
O=C1C(NCC(O)CO)=C(N2CC2)C(=O)C(NCC(O)CO)=C1N1CC1 (stereo not given)	-1.97
Nc1cccc2nc3ccccc3cc12	2.47
CCOC(=O)C(=Cc1ccc(O)c(OC)c1)C(=O)OCC	2.89
BrCCBr	1.96
NC(=O)COc1ccccc1	0.76
COP(=O)(OC)Oc1ccccc1	1.22
CS(=O)(=O)Nc1ccccc1	0.95
CC(=O)NO	-1.59
O=S1(=O)NC(C2CC2)=Nc2cc(Cl)ccc21	1.98
CCC1=Nc2ccc(Cl)cc2S(=O)(=O)N1	1.62
CN(C)Cc1ccco1	1.19
O=C(CNC(=O)c1ccccc1)Oc1cccc(Cl)c1	3.21
c1ccc2cnncc2c1	0.57

Compound	logP
CCCCl	2.04
CC=NO	-0.13
Cc1ccc2[nH]c(CCc3nc4cc(C)ccc4[nH]3)nc2c1	1.39
COc1ccc(OC(=O)N(C)C)cc1	1.53
CCCOCCC(=O)N(C)c1ccc(S(=O)(=O)N(C)C)cc1	1.26
O=C(NCC(O)c1ccc([N+](=O)[O-])cc1)C(F)(F)F (stereo not given)	1.46
CCOCOCC	0.84
COc1cc(C=O)ccc1OCCOC(=O)c1ccc(Cl)cc1	3.71
CCC(=O)OCC(=O)[C@@]1(OC(=O)CC)[C@@H](C)C[C@H]2[C@@H]3CCC4=CC(=O)C=C[C@]4(C)[C@@]3(F)[C@@H](O)C[C@@]21C	4.07
CC(O)CCC(=O)c1ccoc1 (stereo not given)	0.84
C1=CCOC1	0.46
C=CC(=O)c1ccccc1	1.88
CCC1=Nc2cc(Cl)ccc2S(=O)(=O)N1	1.61
CC1=Nc2cccc(Cl)c2S(=O)(=O)N1	0.62
Cc1ccc(S(=O)(=O)F)cc1	2.74
c1ccc2[nH]c(CCCCCCc3nc4ccccc4[nH]3)nc2c1	1.66
CC(=O)c1ccc([C@@H](O)[C@@H](CO)NC(=O)C(Cl)Cl)cc1	0.57
N#CCC(=O)Nc1ccc(Cl)c(Cl)c1	2.72
CC(C)CO	0.65
C#CCCC(C)=O	0.58

same assay, conditions: pH 0.5

Compound	logD
CC(O)COc1cccc2oc(C(=O)O)cc(=O)c12 (stereo not given)	1.32

same assay, conditions: pH 1.0

Compound	logD
COC(=O)c1ccccc1C(=O)O	1.13

same assay, conditions: pH 2.0

Compound	logD
CCC1(CC2COc3ccccc3O2)C(=O)NC(=O)NC1=O (stereo not given)	1.85

same assay, conditions: pH 5.4

Compound	logD
COC(=O)c1cc2nc(S(=O)Cc3ncccc3C)[nH]c2cc1C (stereo not given)	2.4

same assay, conditions: pH 7.0

Compound	logD
O=Cc1ccc([N+](=O)[O-])cc1	1.56
CC(=O)c1ccc(N(C)C)cc1	2.1
CN(C)c1ccc([N+](=O)[O-])cc1	2.27

same assay, conditions: pH 7.4

Compound	logD
c1cc2n(n1)CCN2	-0.25
CN(C)/N=N/c1ccccc1C(N)=O	1.73
Nc1ccc(C(F)(F)F)cc1	2.39
CNN=CCCc1ccccc1	1
CCn1c(C)c(N(C)C)c(=O)n(-c2ccccc2)c1=O	1.8

same assay, conditions: pH 7.5

Compound	logD
CC1OC(C)OC(C)O1 (stereo not given)	0.67
O=C[C@H](O)[C@@H](O)[C@H](O)[C@H](O)CO	-1.88

same assay, conditions: pH 8.0

Compound	logD
CC(=O)OC(OC(C)=O)c1ccc([N+](=O)[O-])o1	1.06
COc1ccc(-c2nc3ccccc3[nH]2)c(OC)c1	2.59

same assay, conditions: pH 11.0

Compound	logD
CCNCc1cccnc1	0.76

same assay, conditions: pH 13.0

Compound	logD
Nc1nc(N)c2ccccc2n1	1
COC(OC)OC	0.25
CCN(CC)CC(O)c1ccccc1 (stereo not given)	2.02
CC(=O)Nc1cccc(OCc2cccc(N3C(N)=NC(N)=NC3(C)C)c2)c1	1.15
